Patent US11382907B2, “Methods and compositions for treating aging-associated impairments using CCR3-inhibitors” (Alkahest, Inc., priority 2017, dated 2022)
“Also recorded” adds a separate entry of the source.

Columns and labels:
[1] = test system: doublecortin-positive cells in the hippocampus; experiment: Histology: doublecortin (DCX) positive cells in hippocampus of aged mice; assay type: in vivo, C57Bl/6 mice; settings: 18-month-old mice; four-week subcutaneous dosing by pump, versus IgG control
From the text: Mice were taken down on the day following the end of behavior testing. Anesthesia was induced by 2,2,2-tribromoethanol and mice were subsequently perfused with 0.9% saline trans-cardially. The brains were dissected and cut sagitally in two even halves. One half was snap frozen for later use in dry ice, and the other was fixed in 4% paraformaldehyde in PBS for use in immunohistochemistry. After two days of fixation, the hemibrains were transferred to a 30% sucrose in PBS solution and changed after two days. Hemibrains were sectioned at 30 um on a microtome at −22° C. Brain sections were stored in cryoprotectant media at −20° C. until needed for staining. Blocking was done on free floating sections in the appropriate serum at 10% serum in PBST 0.5%. Primary antibodies were incubated overnight at 4 C. For light microscopy, the following antibodies were used in the given concentrations: DCX, 1:200, Santa Cruz BioTech, CD68, 1:1000. AbD Serotec. Secondary biotinylated antibodies were applied the next day at a concentration of 1:300. Staining visualization was achieved by reaction with the ABC kit (Vector) and diaminobenzidine (Sigma). Dehydration of the mounted slides was achieved using ethanol and xylene dips. Images were acquired on a Leica light microscope at 5× magnification. […]

[2] = test system: aged C57Bl/6 mice; experiment: Y-maze test in aged mice; assay type: in vivo
Method: A large Y-maze test assesses short-term memory of the familiarity of a specific context. Mice are brought to the experimental room for at least 30 min of acclimation to the experimental room conditions (dim lighting) prior to testing. For the initial training trial, the mouse is placed at the end of one arm of a large Y-maze designated “start arm” (arm length: 15 inches). The third arm of the maze is blocked off, allowing the mouse to explore two of the three arms freely (“start arm” and “familiar arm”) for 5 min. Each arm contains spatial cues. One hour later, the mouse is placed back into the maze in the “start arm” and allowed to explore all three arms with the third arm unblocked (“novel arm”). Movements in and out of each arm are tracked using automated tracking software (CleverSys). Testing is performed under dim lighting, and the apparatus is cleaned with 70% ethanol between trials.
(§1) Two-month-old or 18-month-old C57Bl/6 mice were dosed with either IgG antibody control by IP injection or Compound 1 subcutaneously by Alzet osmotic pump for either 2 or 4 weeks. During the last week of treatment, mice were subjected to behavior testing prior to perfusion on the last day of treatment. All mice received 5 consecutive days of BrdU injection at 150 mg/kg IP immediately prior to treatment start.
as §1, with “Three-month-old” for “Two-month-old”, “16.5-month-old” for “18-month-old”, “vehicle” for “IgG antibody”, “control” for “control by IP injection”, “for” for “for either 2 or”
23-month-old C57Bl/6 mice were dosed with either vehicle control or Compound 1 by oral gavage twice daily for 19 days. After 11 days of treatment, mice were subjected to Y maze testing.
(§2) 23-month-old C57Bl/6 mice were dosed with either vehicle control or Compound 1 subcutaneously twice daily for 21 days. Three weeks later, mice were subjected to behavior testing, and sacrificed the day following the last behavior test.

[3] = test system: three-month-old C57 mice treated with LPS; experiment: Open Field test (anxiety) in mice given daily LPS; assay type: in vivo; settings: 3-month-old mice; daily LPS 0.5 mg/kg IP; 30 mg/kg PO BID, after 1 week
Method: (§3) Open Field is used to evaluate general locomotor activity and exploratory behavior in a novel environment. Mice are brought to the experimental room for at least 30 min for acclimation to the experimental room conditions (dim lighting) prior to testing. The testing arena consists of a 50 cm×50 cm square arena. Mice are placed in the center of an arena and tracked for 15 minutes. Time spent in the peripheral and centers zones is analyzed, along with rearing behavior. 70% ethanol is used to clean all surfaces between trials.
Three-month-old C57 mice were given daily doses of lipopolysaccharide (LPS) 0.5 mg/kg IP to induce inflammation and treated with Compound 1 for up to 4 weeks.
Treatment Groups: • Treatment Group 1, Vehicle treatment: 3-month-old C57 mice (n=10) received daily IP injection of LPS for 7 weeks and twice daily (BID) oral gavage (PO) treatment of vehicle solution for up to 4 weeks. • Treatment Group 2, Vehicle treatment and Oxazolone treatment: 3-month-old C57 mice (n=10) received daily IP injection of LPS for 7 weeks and twice daily (BID) oral gavage (PO) treatment of vehicle solution for up to 4 weeks. • Treatment Group 3, Compound 1 treatment and Oxazolone treatment: 3-month-old C57 mice (n=9) received daily IP injection of LPS for 7 weeks and twice daily (BID) oral gavage (PO) treatment of Compound 1, 30 mg/kg, for up to 4 weeks.

[4] = Compound plasma levels in mice under Alzet pump infusion; assay type: in vivo, C57BL/6 mice; settings: C57BL/6, mouse, other: Alzet pump infusion (perfused), 25 µg/hr, mean±s.e.m., read-out: level of the compound in plasma
Method: Compound levels were measured by MS/MS by Quintara (Hayward, Calif.).
FIG. 6 depicts the levels of the compound of the invention that were detected in mouse CSF for both the young and old groups (both below 10 nM).

[5] = test system: aged C57Bl/6 mice; experiment: Open Field test in aged mice; assay type: in vivo; settings: 23-month-old mice; 30 mg/kg SQ BID 21 days, tested three weeks later
Method: as §3, §2

[6] = 23-month-old mice, 30 mg/kg SQ BID 21 days, tested three weeks later
[7] = 23-month-old mice, 30 mg/kg oral gavage BID, tested after 11 days

With `Cc1cc(C(=O)N(C)C)cc(NC(=O)[C@H]2CCC(=O)N2C2CCN(Cc3ccc(Cl)c(C)c3)CC2)n1` [Compound 1] the “doublecortin-positive cells in the hippocampus” value [1] was “increased the numbers of doublecortin-positive cells”, the “cognitive performance in the cued Y-maze” value ([2]; 16.5-month-old mice, four-week subcutaneous dosing by pump) was “improved cognitive performance” and the “performance in the cued Y-maze” value ([2]; 18-month-old mice, low or high infusion for 2 or 4 weeks) was “improvement in the cued Y-maze”. For the same compound, the “Y-maze duration of time spent in the novel arm” value [2, 6] was “exhibited intact memory for the novel arm”, the “Y-maze number of visits to the novel arm” value [2, 6] was “exhibited intact memory for the novel arm” and the “memory in the Y-maze” value [2, 6] was “significantly improved memory”. For the same compound, the “velocity during the Y-maze test” value [2, 6] was “significantly increased the velocity”, the “Y-maze number of visits to the novel arm” value [2, 7] was “exhibited intact memory for the novel arm” and the “distance travelled during the Y-maze test” value [2, 7] was “significantly increased the distance travelled”. The “memory in the Y-maze” value [2, 7] was “significantly improved memory”, the “anxiety in the Open Field” value [3] was “strongly decreased the increased anxiety; also recorded: decreased the LPS-induced anxiety” and the concentration at 4 weeks ([4]; old (18-month) mice perfused 4 weeks at 0.5 μL/hr of 50 mg/mL solution) was 355 ± 43 nM. The concentration at 2 weeks ([4]; young (2-month-old) mice perfused 2 weeks at 0.5 μL/hr of 50 mg/mL solution) was 352 ± 31 nM, the “Open Field distance travelled” value [5] was “strong trends towards improvement” and the “Open Field velocity” value [5] was “strong trends towards improvement”.
